One experiment has as its target T1, CDK9/Cyclin T1 (Homo sapiens, UniProt P50750).
T1 construct: purchased Carna Biosciences 04-110
The experiment in a line: CDK9 enzyme protocol (LANCE ULight TR-FRET kinase assay). As to conditions: 4 nM CDK9/Cyclin T1, 1000 μM ATP, 100 nM U-light MBP peptide, 30 minutes. The format is biochemical. The procedure:
CDK9 enzyme activities were measured using LANCE ULight TR-FRET kinase assay reagents (PerkinElmer, Waltham, Mass.). Compounds were directly added in 100% DMSO to white low volume assay plates (Perkin Elmer Proxiplate 6008289) using a Labcyte Echo acoustic dispenser. Assay reagents in serine/threonine kinase assay buffer containing 20 mM HEPES, 10 mM MgCl2, 100 mM Na3VO4, and 0.0075% Triton X-100. were added for final reaction mixture concentrations of 1000 μM ATP, 100 nM U-light MBP peptide (Perkin Elmer TRF0109M) and reaction initiated with 4 nM CDK9/Cyclin T1 (Carna Biosciences 04-110). The kinase reaction was carried out for 30 minutes before addition of stopping buffer to a final of 20 mM EDTA and 0.5 nM of LANCE Ultra Europium anti-phospho-MBP antibody (PerkinElmer TRF0201M) in LANCE detection buffer (PerkinElmer CR97-100). The reaction was equilibrated for 1 hour and the signal read in the Perkin Elmer Envision in TR-FRET mode (excitation at 320 nm and emission at 615/665 nm).
For orientation: Time-resolved FRET reads energy transfer from a long-lived donor to a nearby acceptor.

The next experiment deals with H929 cells. Nature of the experiment: Cell viability assay in H929 cells (Cell TiterGlo). The format is cell-based. As to conditions: Homo sapiens, NCI-H929, 24 hours at 37° C. As for the experimental part:
Cell viability assays were performed using A431 or H929 cells. A431 cells were seeded in 96-well plates at 10,000 cells/well, and after overnight incubation, treated with compounds at 2-times the final concentration to result in a dose response of 3-fold dilutions from 10 μM to 0.0005 μM (50 μL/well, 0.1% final DMSO concentration). H929 cells were seeded in 96-well plates at 10,000 cells/well and treated immediately with compounds as described above. After 24 hours at 37° C., cell viability was measured using Cell TiterGlo reagent (Promega) with a luminescence reader. Alternately, cell viability assays were performed in 384-well format. A431 cells were seeded in 384-well plates at 2500 cells/well and, after overnight incubation, treated with compounds in a dose response of 3-fold dilutions from 10 μM to 0.0005 μM (25 nL/well, 0.1% final DMSO concentration). For the H929 viability assay, 25 nL/well of the compounds was dispensed into 384-well plates in a dose response as described above and cells were immediately seeded in 384-well plates at 2500 cells/well. After 24 hours at 37° C., cell viability was measured using Cell TiterGlo reagent (Promega) with a luminescence reader.
(In general: In ATP-based viability assays light output follows the ATP content of the culture.)

The structures appear in SMILES notation. Bounds are passed on as bounds.

For 23 molecules, IC50 and EC50 results are on record in US9346813B2, “Substituted pyrrolo[2,3-d]pyrimindines as CDK9 kinase inhibitors” (AbbVie Inc., priority 2014, dated 2016).

T1 sequence (P50750 whole entry): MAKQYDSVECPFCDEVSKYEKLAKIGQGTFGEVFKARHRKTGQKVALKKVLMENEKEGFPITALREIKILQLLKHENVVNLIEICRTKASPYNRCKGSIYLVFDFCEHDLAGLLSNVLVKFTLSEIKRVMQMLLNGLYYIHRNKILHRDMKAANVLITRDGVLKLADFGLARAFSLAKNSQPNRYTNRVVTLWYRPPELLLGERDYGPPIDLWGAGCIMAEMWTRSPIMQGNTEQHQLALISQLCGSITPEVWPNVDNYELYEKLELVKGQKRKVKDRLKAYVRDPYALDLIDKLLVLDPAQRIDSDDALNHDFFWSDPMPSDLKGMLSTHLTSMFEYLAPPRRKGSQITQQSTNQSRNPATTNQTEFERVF
T1 sequence (O60563 whole entry partner): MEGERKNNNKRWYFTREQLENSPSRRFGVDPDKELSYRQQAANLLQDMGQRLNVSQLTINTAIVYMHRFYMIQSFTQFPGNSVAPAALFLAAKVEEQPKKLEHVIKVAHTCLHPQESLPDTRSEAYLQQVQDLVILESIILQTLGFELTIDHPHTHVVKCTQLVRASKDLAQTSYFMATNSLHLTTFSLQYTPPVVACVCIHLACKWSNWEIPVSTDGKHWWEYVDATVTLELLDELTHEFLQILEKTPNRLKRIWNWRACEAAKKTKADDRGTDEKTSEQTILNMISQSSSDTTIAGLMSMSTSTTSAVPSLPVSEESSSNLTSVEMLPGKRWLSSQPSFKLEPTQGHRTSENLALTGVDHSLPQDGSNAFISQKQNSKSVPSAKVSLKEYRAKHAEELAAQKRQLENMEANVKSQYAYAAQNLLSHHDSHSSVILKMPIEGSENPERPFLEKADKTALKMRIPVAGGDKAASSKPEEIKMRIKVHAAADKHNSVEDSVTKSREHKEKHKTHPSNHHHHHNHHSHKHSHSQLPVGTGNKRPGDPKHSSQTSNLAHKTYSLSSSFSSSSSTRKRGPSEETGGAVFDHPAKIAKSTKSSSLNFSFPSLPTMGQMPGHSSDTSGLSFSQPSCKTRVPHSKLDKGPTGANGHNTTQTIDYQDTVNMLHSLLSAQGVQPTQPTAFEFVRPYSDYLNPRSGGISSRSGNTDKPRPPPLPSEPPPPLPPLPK

With `COc1ccc(F)cc1-c1ncnc2[nH]c(C3=CCN(Cc4cccc(F)c4)CC3)cc12` [Example 35, 6-[1-(3-fluorobenzyl)-1,2,3,6-tetrahydropyridin-4-yl]-4-(5-fluoro-2-methoxyphenyl)-7H-pyrrolo[2,3-d]pyrimidine], the midpoint of inhibition against CDK9/Cyclin T1, the IC50, lay at 150 nM. Besides, the EC50 (commonly the concentration that produces a half-maximal response) in the experiment on H929 cells is 930 nM.

Regarding `COc1ccc(F)cc1-c1ncnc2[nH]c(C3=CCN(S(C)(=O)=O)CC3)cc12` [Example 5, 4-(5-fluoro-2-methoxyphenyl)-6-[1-(methylsulfonyl)-1,2,3,6-tetrahydropyridin-4-yl]-7H-pyrrolo[2,3-d]pyrimidine], on CDK9/Cyclin T1, the IC50 (commonly the concentration needed to halve the response being measured) is 20 nM. This molecule also came in with an EC50 in the experiment with H929 cells of 380 nM.

On CDK9/Cyclin T1, `COc1ccc(F)cc1-c1ncnc2[nH]c(C3=CCN(CC4CCNCC4)CC3)cc12` [Example 39, 4-(5-fluoro-2-methoxyphenyl)-6-[1-(piperidin-4-ylmethyl)-1,2,3,6-tetrahydropyridin-4-yl]-7H-pyrrolo[2,3-d]pyrimidine] had a 50% inhibitory concentration (IC50) of 210 nM. It took 4740 nM to reach a half-maximal effect in the experiment with H929 cells (EC50).

At CDK9/Cyclin T1, `CN(C)C(=O)N1CC=C(c2cc3c(-c4cccc(F)c4F)ncnc3[nH]2)CC1` [Example 76, 4-[4-(2,3-difluorophenyl)-7H-pyrrolo[2,3-d]pyrimidin-6-yl]-N,N-dimethyl-3,6-dihydropyridine-1(2H)-carboxamide] displayed a 50% inhibitory concentration (IC50) of 68 nM. Also, the EC50 in the experiment on H929 cells was 3500 nM.

On CDK9/Cyclin T1, `COc1ccc(F)cc1-c1ncnc2[nH]c(C3=CCC(F)(F)CC3)cc12` [Example 61, 6-(4,4-difluorocyclohex-1-en-1-yl)-4-(5-fluoro-2-methoxyphenyl)-7H-pyrrolo[2,3-d]pyrimidine] returned an IC50 of 62 nM. The same molecule had an EC50 in the experiment with H929 cells of 1400 nM.

In the case of `CS(=O)(=O)N1CC=C(c2cc3c(-c4cc(NCc5ccc(C#N)cc5)ccc4F)ncnc3[nH]2)CC1` [Example 30, 4-{[(4-fluoro-3-{6-[1-(methylsulfonyl)-1,2,3,6-tetrahydropyridin-4-yl]-7H-pyrrolo[2,3-d]pyrimidin-4-yl}phenyl)amino]methyl}benzonitrile], the IC50 against CDK9/Cyclin T1 is 130 nM. Moreover, the concentration giving a half-maximal response (EC50) in the experiment on H929 cells worked out at 230 nM.

In the case of `CS(=O)(=O)N1CC=C(c2cc3c(-c4cc(NCc5cccc(C#N)c5)ccc4F)ncnc3[nH]2)CC1` [Example 31, 3-{[(4-fluoro-3-{6-[1-(methylsulfonyl)-1,2,3,6-tetrahydropyridin-4-yl]-7H-pyrrolo[2,3-d]pyrimidin-4-yl}phenyl)amino]methyl}benzonitrile], half-maximal inhibition at CDK9/Cyclin T1 (IC50) required 110 nM. The molecule also had an EC50 in the experiment on H929 cells of 160 nM.

Regarding `COc1ccc(F)cc1-c1ncnc2[nH]c(C3=CCN(Cc4ccccn4)CC3)cc12` [Example 26, 4-(5-fluoro-2-methoxyphenyl)-6-[1-(pyridin-2-ylmethyl)-1,2,3,6-tetrahydropyridin-4-yl]-7H-pyrrolo[2,3-d]pyrimidine], the concentration for half-maximal inhibition (IC50) on CDK9/Cyclin T1 amounted to 190 nM. The same molecule showed an EC50 in the experiment on H929 cells of 610 nM.

Regarding `CS(=O)(=O)N1CC=C(c2cc3c(-c4cc(NCc5ccncc5)ccc4F)ncnc3[nH]2)CC1` [Example 37, 4-fluoro-3-{6-[1-(methylsulfonyl)-1,2,3,6-tetrahydropyridin-4-yl]-7H-pyrrolo[2,3-d]pyrimidin-4-yl}-N-(pyridin-4-ylmethyl)aniline], half-maximal inhibition on CDK9/Cyclin T1 (IC50) required 51 nM. A half-maximal response in the experiment with H929 cells (EC50) required 329 nM.

Regarding `COc1ccc(F)cc1-c1ncnc2[nH]c(C3=CCN(Cc4ccc(C#N)cc4)CC3)cc12` [Example 22, 4-({4-[4-(5-fluoro-2-methoxyphenyl)-7H-pyrrolo[2,3-d]pyrimidin-6-yl]-3,6-dihydropyridin-1(2H)-yl}methyl)benzonitrile], on CDK9/Cyclin T1, the midpoint of inhibition, the IC50, lay at 240 nM. Further, the EC50 in the experiment on H929 cells was 1100 nM.

Regarding `COc1ccc(F)cc1-c1ncnc2[nH]c(C3=CCN(C4CCC(C(=O)O)CC4)CC3)cc12` (stereo not shown) [Example 86, 4-{4-[4-(5-fluoro-2-methoxyphenyl)-7H-pyrrolo[2,3-d]pyrimidin-6-yl]-3,6-dihydropyridin-1(2H)-yl}cyclohexanecarboxylic acid], at CDK9/Cyclin T1, the midpoint of inhibition, the IC50, lay at 400 nM. The same molecule gave a concentration for a half-maximal effect (EC50) with H929 cells of 3600 nM.

With `COc1ccc(F)cc1-c1ncnc2[nH]c(C3=CCC(N[C@H](C(=O)O)C(C)(C)C)CC3)cc12` (stereo partly drawn) [Example 83, N-{4-[4-(5-fluoro-2-methoxyphenyl)-7H-pyrrolo[2,3-d]pyrimidin-6-yl]cyclohex-3-en-1-yl}-3-methyl-L-valine], the IC50 against CDK9/Cyclin T1 is 320 nM. For the same molecule, it took 520 nM to reach a half-maximal effect in the experiment with H929 cells (EC50).

Molecule `COc1ccc(F)cc1-c1ncnc2[nH]c(C3=CCN(S(=O)(=O)C4CC4)CC3)cc12` [Example 8, 6-[1-(cyclopropylsulfonyl)-1,2,3,6-tetrahydropyridin-4-yl]-4-(5-fluoro-2-methoxyphenyl)-7H-pyrrolo[2,3-d]pyrimidine] yielded an IC50 at CDK9/Cyclin T1 of 19 nM. In the experiment on H929 cells, this molecule returned a concentration giving a half-maximal response (EC50) of 690 nM.

As to `CS(=O)(=O)N1CC=C(c2cc3c(-c4cc(NCC5CCCO5)ccc4F)ncnc3[nH]2)CC1` (stereo not shown) [Example 32, 4-fluoro-3-{6-[1-(methylsulfonyl)-1,2,3,6-tetrahydropyridin-4-yl]-7H-pyrrolo[2,3-d]pyrimidin-4-yl}-N-(tetrahydrofuran-2-ylmethyl)aniline], the IC50 against CDK9/Cyclin T1 is 260 nM. Also, in the experiment with H929 cells, the EC50 was 3600 nM.

Take `COc1ccc(F)cc1-c1ncnc2[nH]c(C3=CCN(Cc4ccc(NC(C)=O)cc4)CC3)cc12` [Example 25, N-[4-({4-[4-(5-fluoro-2-methoxyphenyl)-7H-pyrrolo[2,3-d]pyrimidin-6-yl]-3,6-dihydropyridin-1(2H)-yl}methyl)phenyl]acetamide]: on CDK9/Cyclin T1, it took 76 nM to reach half-maximal inhibition (IC50). Besides, the midpoint of the response in the experiment with H929 cells, the EC50, lay at 58 nM.

Take `COc1ccc(Cl)cc1-c1ncnc2[nH]c(C3=CCN(S(C)(=O)=O)CC3)cc12` [Example 45, 4-(5-chloro-2-methoxyphenyl)-6-[1-(methylsulfonyl)-1,2,3,6-tetrahydropyridin-4-yl]-7H-pyrrolo[2,3-d]pyrimidine]: half-maximal inhibition against CDK9/Cyclin T1 (IC50) required 180 nM. For the same molecule, the EC50 with H929 cells is > 10000 nM.

The molecule `COc1ccc(F)cc1-c1ncnc2[nH]c(C3=CCN([C@H]4CC[C@H](CC(=O)O)CC4)CC3)cc12` [Example 87, (trans-4-{4-[4-(5-fluoro-2-methoxyphenyl)-7H-pyrrolo[2,3-d]pyrimidin-6-yl]-3,6-dihydropyridin-1(2H)-yl}cyclohexyl)acetic acid] registered an IC50 on CDK9/Cyclin T1 of 300 nM. The molecule further came in with an EC50 with H929 cells of 4100 nM.

In turn, `COc1ccc(F)cc1-c1ncnc2[nH]c(C3=CCN(C(C)=O)CC3)cc12` [Example 6, 1-{4-[4-(5-fluoro-2-methoxyphenyl)-7H-pyrrolo[2,3-d]pyrimidin-6-yl]-3,6-dihydropyridin-1(2H)-yl}ethanone] had an IC50 at CDK9/Cyclin T1 of 42 nM. For the same molecule, the EC50 with H929 cells stood at 410 nM.

In the case of `COc1ccc(F)cc1-c1ncnc2[nH]c(C3=CCN(S(=O)(=O)C(F)(F)F)CC3)cc12` [Example 40, 4-(5-fluoro-2-methoxyphenyl)-6-{1-[(trifluoromethyl)sulfonyl]-1,2,3,6-tetrahydropyridin-4-yl}-7H-pyrrolo[2,3-d]pyrimidine], the 50% inhibitory concentration (IC50) against CDK9/Cyclin T1 was 150 nM. Also, the concentration giving a half-maximal response (EC50) in the experiment on H929 cells is 669 nM.

With `COc1ccc(F)cc1-c1ncnc2[nH]c(C3=CCN(C(=O)C4CCN4)CC3)cc12` (stereo not shown) [Example 12, azetidin-2-yl{4-[4-(5-fluoro-2-methoxyphenyl)-7H-pyrrolo[2,3-d]pyrimidin-6-yl]-3,6-dihydropyridin-1(2H)-yl}methanone], at CDK9/Cyclin T1, the IC50 is 88 nM. This molecule also showed a concentration for a half-maximal effect (EC50) with H929 cells of 930 nM.

On to `COC(=O)c1ccc(CN2CC=C(c3cc4c(-c5cc(F)ccc5OC)ncnc4[nH]3)CC2)cc1` [Example 71, methyl 4-({4-[4-(5-fluoro-2-methoxyphenyl)-7H-pyrrolo[2,3-d]pyrimidin-6-yl]-3,6-dihydropyridin-1(2H)-yl}methyl)benzoate], for which the half-inhibitory concentration (IC50) against CDK9/Cyclin T1 worked out at 110 nM. This molecule displayed an EC50 in the experiment with H929 cells of 780 nM.

Take `COc1ccc(F)cc1-c1ncnc2[nH]c(C3=CCC(N[C@@H](CC(C)C)C(=O)O)CC3)cc12` (stereo partly drawn) [Example 85, N-{4-[4-(5-fluoro-2-methoxyphenyl)-7H-pyrrolo[2,3-d]pyrimidin-6-yl]cyclohex-3-en-1-yl}-L-leucine]: the midpoint of inhibition against CDK9/Cyclin T1, the IC50, lay at 170 nM. The EC50 in the experiment with H929 cells was found to be 1700 nM.

Turning to `CCOC(=O)NS(=O)(=O)N1CC=C(c2cc3c(-c4cc(F)ccc4OC)ncnc3[nH]2)CC1` [Example 82, ethyl ({4-[4-(5-fluoro-2-methoxyphenyl)-7H-pyrrolo[2,3-d]pyrimidin-6-yl]-3,6-dihydropyridin-1(2H)-yl}sulfonyl)carbamate], the half-maximal inhibitory concentration (IC50) at CDK9/Cyclin T1 was 71 nM. This molecule came in with a concentration for a half-maximal effect (EC50) in the experiment with H929 cells of 780 nM.
